In patent US20140086827A1, “Serum S100B And Uses Thereof” (THE CLEVELAND CLINIC FOUNDATION, priority 2011, published 2014):
Entries after “also recorded” stand apart in the source; their conditions may differ. Where two headings read alike, the source gives them in different places.

Key:
pilocarpine-induced SE [1] = experiment: Pilocarpine-induced status epilepticus in rats (EEG, Racine's scale, mortality); type: in vivo, rat; details: for time to onset of SE: rats that developed SE
Protocol: Rats (male Sprague-Dawley 225-250 g) were injected with methylscopolamine (0.5 mg/kg, i.p., Sigma-Aldrich) and 30 minutes after with pilocarpine (340 mg/Kg, Sigma-Aldrich). Data obtained from a total of 45 rats was analyzed (see also FIG. 14B). Development of seizure and status epilepticus was evaluated by behavioral (Racine's scale) and EEG assessment. […] IL-RA data included here are relative to [Marchi N., et al. (2009) Neurobiol Dis 33: 171-181]. IL-RA was administrated in the tail vein (30 μg/kg) 2 hours before scopolamine/pilocarpine treatment.
Note that blood samples were taken at baseline, after each treatment and immediately before (or at onset) of status epilepticus (SE), as evaluated by EEG and behavioral (Racine's Scale) assessments. This methodology has been used in the past to evaluate the presence of BBB damage and inflammatory process preceding seizure onset [Uva L., et al. (2008) Neuroscience 151: 303-312].
Stereotactic electrode implantation was performed in rats under isofluorane anaesthesia, using the Kopf stereotactic frame. Approximately, half of the rats used were implanted. Four stainless steel screws (MX-0090-2, Small Parts Inc., Miami, Fla.) were placed bilaterally on the dura mater of the fronto-parietal cortex. A prefabricated Pinnacle pre-amplifier was connected to the screws. The system has three bio-potential channels—2 EEG and 1 EMG. Prefabricated head implants (Pinnacle Inc., USA) ensured accurate electrode positioning and reliable, robust contacts. Cable artifacts are eliminated by pre-amplification of the EEG and EMG waveforms at the animal's head. EEG data were sampled a rate of 200 Hz. All data are transferred via a USB connection to a PC. Rats were left unrestrained for 2 weeks to recovery from surgery before EEG recordings were performed. Each rat was kept in a separate cage under 12-hours dark-light cycles with free access to food and water. Origin Microcal 7.0 and Diadem (National Instruments) was used in conjunction to the acquisition system for data analysis (e.g., time joint frequency analysis).

[2] = tested on: drug-resistant epileptic seizures; experiment: Add-on glucocorticosteroid or ACTH treatment in pediatric drug resistant epilepsy (review of clinical data); type: in vivo, human; details: for occurrence of seizures (seizure burden vs baseline): add-on treatment, pediatric drug resistant epilepsy, 53 treatments
Protocol: The study was conducted according to the Declaration of Helsinki Criteria and to the procedures for compassionate drug administration approved by the Ethic Committees of Carlo Besta Institute (Milan, Italy). Oral informed consent from was obtained from parents by specialized neurologists. Administration of GCs was considered compassion care since all patients had intractable life threatening seizures. The clinical data of 43 patients (Table 4) of the Carlo Besta Neurological Institute (Milan, Italy) was reviewed. […] Patients with a history of epileptic syndromes known to respond to steroids (i.e., West, Lennox-Gastaut, Landau-Kleffner and Rasmussen encephalitis) as well as patients affected by documented inflammatory brain disease were excluded. All the subjects received steroid treatment on an in-patient basis.
Patients received GCs or ACTH therapy because of one of the following: 1) >50% increase in seizure frequency; 2) development of non-convulsive status epilepticus; 3) presence of epilepsia partialis continua (EPC). Before GCs or ATCH treatment, patients were evaluated by a team of neurologists, physiologists, and underwent EEG and routine laboratory examinations. Antiepileptic treatments were maintained during the steroid course (Table 4).
Steroidal treatment was, when successful, repeated in case of seizure recurrence. […] GCs or ATCH therapy was considered successful when: 1) seizure frequency decreased by 50%; 2) status epilepticus was stopped; 3) or when epilepsia partialis continua (EPC) was stopped/reduced enough to allow voluntary movement in the affected body district. Duration of treatment was limited to acute dosing, which was repeated when the initial response was beneficial. The effects of length of treatments and efficacy/toxicity of chronic use are not presented herein, since this study design only addressed a proof of principle use of steroids in pediatric epilepsy.

IL-1β = experiment: Serum IL-1β ELISA in rats; type: in vivo, rat; details: dexamethasone treatment
Protocol: (§1) The schedule of blood sampling is illustrated in FIG. 14A. Blood was collected from the tail vein using a fixed catheter (Venisystem, Abbocath, 22 G, 300-500 μl/sample). For FACS analysis, 150 μL of whole blood were incubated with a combination of specific antibodies recognizing T-cell subpopulation (CD3+). In particular mouse anti-rat CD8a-FITC, CD3-R-PE and CD4-PE-Cy5 (BD-Pharmingen) were added (2 μL, 5 μL and 5 μL respectively) to blood samples. Blood samples were analyzed by the FACS-Core facility at the Cleveland Clinic. IL-1β ELISA-tests was purchased from Pierce Biotechnology Inc. and performed as described by the vendor.

CD3+ T-lymphocytes = experiment: FACS analysis of circulating T-lymphocytes in rat blood; type: in vivo; details: after dexamethasone treatment, rats
Protocol: as §1

seizures = details: drug-resistant children, Araki 2006; cited from earlier work
pilocarpine-induced SE [3] = details: data from Marchi 2009, cited from earlier work
blood-brain barrier = details: IL-RA pre-treatment; previously reported; cited from earlier work
[4] = dexamethasone pre-treatment, vs pilocarpine alone

## C[C@@H]1C[C@H]2[C@@H]3CCC4=CC(=O)C=C[C@]4(C)[C@@]3(F)[C@@H](O)C[C@]2(C)[C@@]1(O)C(=O)CO [dexamethasone]
pilocarpine-induced SE [1]; [4]
  time to onset of SE: significantly delayed
  early EEG burst clusters (time-joint frequency analysis): reduced in amplitude and frequency
pilocarpine-induced SE [1]; dexamethasone pre-treatment, vs pilocarpine alone, listed as Dexa
  time to onset of SE: delayed
pilocarpine-induced SE [1]; dexamethasone pre-treatment, seizures not stopped with barbiturates
  mortality associated with pilocarpine SE (twelve hours): significantly decreased; also recorded: abolishes mortality; also recorded: reduced mortality; also recorded: abolished
pilocarpine-induced SE [1]; single dosage of 1 mg/day
  effects of single dosage of 1 mg/day on pilocarpine seizures: did not exert any discernable effects
[2]
  occurrence of seizures (seizure burden vs baseline): significantly reduced
[2]; patient after dexamethasone treatment, concurrent with seizure reduction
  MRI FLAIR hyperintensity: decrease in FLAIR hyperintensity
IL-1β
  serum IL1-β levels: reduced
IL-1β; listed as Dexamethasone
  serum IL1-β levels: significantly reduced
CD3+ T-lymphocytes
  number of circulating CD3+ T-lymphocytes: drastic reduction; also recorded: drastic decrease
  relative percentage of CD8+ subpopulation among CD3+ cells: significantly affected
seizures
  seizure frequency vs untreated patients: reduced seizure frequency

## C[C@]12CCC(=O)C=C1CC[C@@H]1[C@@H]2[C@@H](O)C[C@@]2(C)[C@H]1CC[C@]2(O)C(=O)CO [hydrocortisone]
[2]; epileptic patients, clinical dosage
  blood-brain barrier function and seizure frequency in epileptic patients receiving anti-inflammatory therapy: comparable effects

## IL-RA: IL-1 receptor antagonist, data from Marchi 2009
pilocarpine-induced SE [3]; IL1-RA pre-treatment
  early EEG burst clusters (time-joint frequency analysis): reduced in amplitude and frequency
pilocarpine-induced SE [3]; IL-RA 30 μg/kg tail vein 2 hours before scopolamine/pilocarpine
  number of rats developing SE / seizure occurrence: reduces seizure occurrence
pilocarpine-induced SE [3]; IL-RA pre-treatment
  mortality associated with pilocarpine seizures (twelve hours): decreased
  time to onset of SE: delayed
blood-brain barrier
  pilocarpine-induced BBB damage: prevents BBB damage

## adrenocorticotropic hormone (SYSMEHFRWGKPVGKKRRPVKVYPNGAEDESAEAFPLEF; Corticotropin; UniProt P01189 138-176, looked up) [ACTH]
[2]
  occurrence of seizures (seizure burden vs baseline): significantly reduced
